Reference: patent publication US20080242663A1, “NOVEL PYRIMIDINE DERIVATIVES 698” (ASTRAZENECA AB, priority 2007, published 2008)

Biological target: T1, recombinant EphB4 (Homo sapiens, UniProt P54760)
T1 construct: amino acids 563-987; Swiss-Prot Acc; No. P54760; purchased ProQinase GmbH 0178-0000-3
T1 sequence (P54760 563-987): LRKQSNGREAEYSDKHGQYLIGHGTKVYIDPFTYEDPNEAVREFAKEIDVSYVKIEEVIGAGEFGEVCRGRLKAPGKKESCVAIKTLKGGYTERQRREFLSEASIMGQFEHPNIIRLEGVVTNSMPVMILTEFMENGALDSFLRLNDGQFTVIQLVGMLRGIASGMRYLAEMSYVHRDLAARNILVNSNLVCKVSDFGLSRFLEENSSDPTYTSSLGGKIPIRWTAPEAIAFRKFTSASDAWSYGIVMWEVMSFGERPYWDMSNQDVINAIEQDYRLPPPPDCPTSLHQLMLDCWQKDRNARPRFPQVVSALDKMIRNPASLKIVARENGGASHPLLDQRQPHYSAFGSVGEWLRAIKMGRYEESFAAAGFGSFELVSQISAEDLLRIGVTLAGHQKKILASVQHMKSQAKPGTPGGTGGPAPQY
Assay: In vitro EphB4 enzyme assay (Alphascreen)
Format: biochemical
Outline: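 Recombinant EphB4 phosphorylated biotin-poly-GAT with Mg-ATP for 1 hr at room temperature; EDTA stop, then Alphascreen donor/acceptor (anti-phosphotyrosine) beads for 20 hrs in the dark. After minimum subtraction, signal plotted against compound concentration to derive IC50.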

| Structure (SMILES) | IC50 |
| --- | --- |
| CCN(c1ccnc(Nc2cc(N3CCOCC3)cc(S(C)(=O)=O)c2)n1)c1cc(CO)ccc1C [Example 8.1, [3-[ethyl-[2-[(3-methylsulfonyl-5-morpholin-4-yl-phenyl)amino]pyrimidin-4-yl]amino]-4-methyl-phenyl]methanol] | 414 nM |
| CN(c1cccc(C#N)c1)c1ccnc(Nc2cc(N3CCOCC3)cc(N3CCOCC3)c2)n1 [Example 10.10, 3-[[2-[(3,5-dimorpholin-4-ylphenyl)amino]pyrimidin-4-yl]-methyl-amino]benzonitrile] | 527 nM |
| CN1CCN(c2cc(Nc3nccc(N(C)c4ccc(F)c(Cl)c4F)n3)cc(N3CCOCC3)c2)CC1 [Example 5, N′-(3-chloro-2,4-difluoro-phenyl)-N′-methyl-N-[3-(4-methylpiperazin-1-yl)-5-morpholin-4-yl-phenyl]pyrimidine-2,4-diamine] | 424 nM |
| COc1ccc(C)c(N(C)c2ccnc(Nc3cc(N4CCOCC4)cc(N4CCOC[C@@H]4C)c3)n2)c1 [Example 12.8, (S)-N4-(5-methoxy-2-methylphenyl)-N4-methyl-N2-(3-(3-methylmorpholino)-5-morpholinophenyl)pyrimidine2,4-diamine] | 5.82 nM |
| Cc1ccc(CO)cc1N(C)c1ccnc(Nc2cc(C#N)cc(N3CCOCC3)c2)n1 [Example 7.15, 3-[[4-[[5-(hydroxymethyl)-2-methyl-phenyl]-methyl-amino]pyrimidin-2-yl]amino]-5-morpholin-4-yl-benzonitrile] | 195 nM |
| CN(c1ccnc(Nc2cc(N3CCOCC3)cc(N3CCOCC3)c2)n1)c1ccc(Cl)cc1Cl [Example 15.1, N′-(2,4-dichlorophenyl)-N-(3,5-dimorpholin-4-ylphenyl)-N′-methyl-pyrimidine-2,4-diamine] | 34100 nM |
| CN(c1cc(Cl)cc(CO)c1)c1ccnc(Nc2cc(N3CCOCC3)cc(N3CCOCC3)c2)n1 [Example 10.20, [3-chloro-5-[[2-[(3,5-dimorpholin-4-ylphenyl)amino]pyrimidin-4-yl]-methyl-amino]phenyl]methanol] | 338 nM |
| CN(c1ccnc(Nc2cc(N3CCC(O)CC3)cc(S(C)(=O)=O)c2)n1)c1ccc(F)c(Cl)c1F [Example 2.11, 1-[3-[[4-[(3-chloro-2,4-difluoro-phenyl)-methyl-amino]pyrimidin-2-yl]amino]-5-methylsulfonyl-phenyl] piperidin-4-ol] | 106 nM |
| CCCOc1cc(Nc2nccc(N(C)c3cc(CO)ccc3C)n2)cc(N2CCOCC2)c1 [Example 17.1, [4-methyl-3-[methyl-[2-[(3-morpholin-4-yl-5-propoxy-phenyl)amino]pyrimidin-4-yl]amino]phenyl]methanol] | 265 nM |
| CCOCCOc1cc(Nc2nccc(N(C)c3cc(CO)ccc3C)n2)cc(N2CCOCC2)c1 [Example 17.7, [3-[[2-[[3-(2-ethoxyethoxy)-5-morpholin-4-yl-phenyl]amino]pyrimidin-4-yl]-methyl-amino]-4-methyl-phenyl]methanol] | 639 nM |
| CC(=O)N1CCN(c2cc(Nc3nccc(N(C)c4ccc(F)c(Cl)c4F)n3)cc(S(C)(=O)=O)c2)CC1 [Example 2.12, 1-[4-[3-[[4-[(3-chloro-2,4-difluoro-phenyl)-methyl-amino]pyrimidin-2-yl]amino]-5-methylsulfonyl-phenyl]piperazin-1-yl] ethanone] | 189 nM |
| CN(c1ccc(F)c(F)c1)c1ccnc(Nc2cc(N3CCOCC3)cc(N3CCOCC3)c2)n1 [Example 15.7, N′-(3,4-difluorophenyl)-N-(3,5-dimorpholin-4-ylphenyl)-N′-methyl-pyrimidine-2,4-diamine] | 707 nM |
| CN(c1ccc(Cl)c(F)c1)c1ccnc(Nc2cc(N3CCOCC3)cc(N3CCOCC3)c2)n1 [Example 15.16, N′-(4-chloro-3-fluoro-phenyl)-N-(3,5-dimorpholin-4-ylphenyl)-N′-methyl-pyrimidine-2,4-diamine] | 634 nM |
| CN(c1ccnc(Nc2cc(N3CCN(CCO)CC3)cc(S(C)(=O)=O)c2)n1)c1ccc(F)c(Cl)c1F [Example 2.13, 2-[4-[3-[[4-[(3-chloro-2,4-difluoro-phenyl)-methyl-amino]pyrimidin-2-yl]amino]-5-methylsulfonyl-phenyl]piperazin-1-yl] ethanol] | 69.7 nM |
| CN(c1ccnc(Nc2cc(N3CCOCC3)cc(N3CCOCC3)c2)n1)c1cccc(Cl)c1C#N [Example 15.6, 2-chloro-6-[[2-[(3,5-dimorpholin-4-ylphenyl)amino]pyrimidin-4-yl]-methyl-amino]benzonitrile] | 417 nM |
| COc1cc(C)ccc1N(C)c1ccnc(Nc2cc(N3CCOCC3)cc(N3CCOCC3)c2)n1 [Example 15.12, N-(3,5-dimorpholin-4-ylphenyl)-N′-(2-methoxy-4-methyl-phenyl)-N′-methyl-pyrimidine-2,4-diamine] | 1400 nM |
| CN(c1ccnc(Nc2cc(CO)cc(N3CCOCC3)c2)n1)c1ccc(F)c(Cl)c1F [Example 2.7, [3-[[4-[(3-chloro-2,4-difluoro-phenyl)-methyl-amino]pyrimidin-2-yl]amino]-5-morpholin-4-yl-phenyl] methanol] | 117 nM |
| CN(c1ccnc(Nc2cc(N3CCOCC3)cc(S(C)(=O)=O)c2)n1)c1ccc(F)c(Cl)c1F [Example 2.6, N′-(3-chloro-2,4-difluoro-phenyl)-N′-methyl-N-(3-methylsulfonyl-5-morpholin-4-yl-phenyl) pyrimidine-2,4-diamine] | 447 nM |
| Cc1ccc(CO)cc1N(C)c1ccnc(Nc2cc(N3CCOCC3)cc(N3CC[C@@H](O)C3)c2)n1 [Example 7.10, (3R)-1-[3-[[4-[[5-(hydroxymethyl)-2-methyl-phenyl]-methyl-amino]pyrimidin-2-yl]amino]-5-morpholin-4-yl-phenyl]pyrrolidin-3-ol] | 13.5 nM |
| COc1ccc(C)c(N(C)c2ccnc(Nc3cc(N4CCNCC4)cc(N4CCOCC4)c3)n2)c1 [Example 12.6, N4-(5-methoxy-2-methylphenyl)-N4-methyl-N2-(3-morpholino-5-(piperazin-1-yl)phenyl)pyrimidine-2,4-diamine] | 3.4 nM |
| COc1ccc(C)c(N(C)c2ccnc(Nc3cc(C(=O)N(C)C)cc(N4CCOCC4)c3)n2)c1 [Example 12.3, 3-[[4-[(5-methoxy-2-methyl-phenyl)-methyl-amino]pyrimidin-2-yl]amino]-N,N-dimethyl-5-morpholin-4-yl-benzamide] | 455 nM |
| COc1ccc(C)c(N(C)c2ccnc(Nc3cc(N4CCOCC4)cc(N4CCC(O)CC4)c3)n2)c1 [Example 12.5, 1-(3-(4-((5-methoxy-2-methylphenyl)(methyl)amino)pyrim-idin-2-ylamino)-5-morpholinophenyl)piperidin-4-ol] | 2.95 nM |

Now from value to compound:

| IC50 | Structure (SMILES) |
| --- | --- |
| 875 nM | CCNC(=O)c1cc(Nc2nccc(N(C)c3cccc(Cl)c3)n2)cc(N2CCOCC2)c1 [Example 19.25, 3-[[4-[(3-chlorophenyl)-methylamino]pyrimidin-2-yl]amino]-N-ethyl-5-morpholin-4-ylbenzamide] |
| 3090 nM | CN(c1cccc(Cl)c1)c1ccnc(Nc2cc(C(=O)NC(C)(C)C)cc(N3CCOCC3)c2)n1 [Example 19.20, 3-[[4-[(3-chlorophenyl)-methyl-amino]pyrimidin-2-yl]amino]-5-morpholin-4-yl-N-tert-butyl-benzamide] |
| 7.88 nM | COc1ccc(F)c(N(C)c2ccnc(Nc3cc(N4CCOCC4)cc(N4CCOCC4)c3)n2)c1 [Example 25.6, N2-(3,5-dimorpholinophenyl)-N4-(2-fluoro-5-methoxyphenyl)-N4-methylpyrimidine-2,4-diamine] |
| 648 nM | CCN(C)C(=O)c1cc(Nc2nccc(N(C)c3cccc(Cl)c3)n2)cc(N2CCOCC2)c1 [Example 19.7, 3-[[4-[(3-chlorophenyl)-methyl-amino]pyrimidin-2-yl]amino]-N-ethyl-N-methyl-5-morpholin-4-yl-benzamide] |
| 342 nM | Cc1ccc(CO)cc1N(C)c1ccnc(Nc2cc(C(=O)N(C)C(C)C)cc(N3CCOCC3)c2)n1 [Example 18.6, 3-[[4-[[5-(hydroxymethyl)-2-methyl-phenyl]-methyl-amino]pyrimidin-2-yl]amino]-N-methyl-5-morpholin-4-yl-N-propan-2-yl-benzamide] |
| 25 nM | Cc1ccc(CO)cc1N(CCO)c1ccnc(Nc2cc(N3CCOCC3)cc(N3CCOCC3)c2)n1 [Example 21.3] |
| 477 nM | Cc1ccc(CO)cc1N(C)c1ccnc(Nc2cc(C(=O)NCC3CC3)cc(N3CCOCC3)c2)n1 [Example 18.5, N-(cyclopropylmethyl)-3-[[4-[[5-(hydroxymethyl)-2-methyl-phenyl]-methyl-amino]pyrimidin-2-yl]amino]-5-morpholin-4-yl-benzamide] |
| 234 nM | CN(c1cccc(Cl)c1)c1ccnc(Nc2cc(C(=O)N3CCC(O)CC3)cc(N3CCOCC3)c2)n1 [Example 19.12, [3-[[4-[(3-chlorophenyl)-methyl-amino]pyrimidin-2-yl]amino]-5-morpholin-4-yl-phenyl]-(4-hydroxy-1-piperidyl) methanone] |
| 1970 nM | CN(c1cccc(Cl)c1)c1ccnc(Nc2cc(C(=O)NCC3CC3)cc(N3CCOCC3)c2)n1 [Example 19.16, 3-[[4-[(3-chlorophenyl)-methyl-amino]pyrimidin-2-yl]amino]-N-(cyclopropylmethyl)-5-morpholin-4-yl-benzamide] |
| 76.9 nM | COc1cccc(C)c1N(C)c1ccnc(Nc2cc(N3CCOCC3)cc(N3CCOCC3)c2)n1 [Example 25.2, N2-(3,5-dimorpholinophenyl)-N4-(2-methoxy-6-methylphenyl)-N4-methylpyrimidine-2,4-diamine] |
